# PubChem BioAssay (NCI)
#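 All cell lines were grown in 96-well plates and treated with compound for 48 hours. GI50 is the concentration that inhibits growth by half. At the TGI there is no net growth.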
# Assays:
# Assay in all cases: NCI tumour cell line growth inhibition, 48 h
# M14 melanoma = test system: M14 melanoma
# OVCAR-8 ovarian = test system: OVCAR-8 ovarian
# HCT-15 colon = test system: HCT-15 colon
# HCT-116 colon = test system: HCT-116 colon
# EKVX NSCLC = test system: EKVX NSCLC
# OVCAR-3 ovarian = test system: OVCAR-3 ovarian
# SN12C renal = test system: SN12C renal
# NCI/ADR-RES ovarian = test system: NCI/ADR-RES ovarian
# COLO 205 colon = test system: COLO 205 colon
# K-562 leukemia = test system: K-562 leukemia
# HCC-2998 colon = test system: HCC-2998 colon
# MDA-MB-468 breast = test system: MDA-MB-468 breast
# HOP-92 NSCLC = test system: HOP-92 NSCLC
# HOP-62 NSCLC = test system: HOP-62 NSCLC
# UACC-62 melanoma = test system: UACC-62 melanoma
# MALME-3M melanoma = test system: MALME-3M melanoma
# A498 renal = test system: A498 renal
# CAKI-1 renal = test system: CAKI-1 renal
# RXF 393 renal = test system: RXF 393 renal
# TK-10 renal = test system: TK-10 renal
# NCI-H226 lung = test system: NCI-H226 lung
# LOX IMVI melanoma = test system: LOX IMVI melanoma
# SNB-19 CNS = test system: SNB-19 CNS
# UO-31 renal = test system: UO-31 renal
# SK-OV-3 ovarian = test system: SK-OV-3 ovarian
# SR leukemia = test system: SR leukemia
# NCI-H23 lung = test system: NCI-H23 lung
# MDA-MB-435 = test system: MDA-MB-435
# HL-60(TB) leukemia = test system: HL-60(TB) leukemia
compound,measurement,setting,value
COc1ccc2[nH]c(O)c(N=NC(=O)COc3ccc(NC(=O)Nc4ccccc4)cc3)c2c1,GI50,M14 melanoma,2.9 µM
same,TGI,M14 melanoma,21.1 µM
same,GI50,OVCAR-8 ovarian,9.79 µM
same,TGI,OVCAR-8 ovarian,27.5 µM
same,GI50,HCT-15 colon,> 100 µM
same,TGI,HCT-15 colon,> 100 µM
same,GI50,HCT-116 colon,2.91 µM
same,TGI,HCT-116 colon,27.5 µM
same,GI50,EKVX NSCLC,35.3 µM
same,TGI,EKVX NSCLC,> 100 µM
same,GI50,OVCAR-3 ovarian,17.4 µM
same,TGI,OVCAR-3 ovarian,35.5 µM
same,GI50,SN12C renal,16.4 µM
same,TGI,SN12C renal,31.7 µM
same,GI50,NCI/ADR-RES ovarian,> 100 µM
same,TGI,NCI/ADR-RES ovarian,> 100 µM
same,GI50,COLO 205 colon,16.5 µM
same,TGI,COLO 205 colon,33.5 µM
same,GI50,K-562 leukemia,26.7 µM
same,TGI,K-562 leukemia,> 100 µM
same,GI50,HCC-2998 colon,17.5 µM
same,TGI,HCC-2998 colon,42.8 µM
same,GI50,MDA-MB-468 breast,11.1 µM
same,TGI,MDA-MB-468 breast,26.2 µM
same,GI50,HOP-92 NSCLC,7.82 µM
same,TGI,HOP-92 NSCLC,25.4 µM
same,GI50,HOP-62 NSCLC,18.5 µM
same,TGI,HOP-62 NSCLC,34.6 µM
same,GI50,UACC-62 melanoma,16.3 µM
same,TGI,UACC-62 melanoma,30.8 µM
same,GI50,MALME-3M melanoma,14.4 µM
same,TGI,MALME-3M melanoma,28.4 µM
same,GI50,A498 renal,18.3 µM
same,TGI,A498 renal,38.4 µM
same,GI50,CAKI-1 renal,24.3 µM
same,TGI,CAKI-1 renal,70.1 µM
same,GI50,RXF 393 renal,13.6 µM
same,TGI,RXF 393 renal,32.5 µM
same,GI50,TK-10 renal,46.2 µM
same,TGI,TK-10 renal,> 100 µM
same,GI50,NCI-H226 lung,15 µM
same,TGI,NCI-H226 lung,34.7 µM
same,GI50,LOX IMVI melanoma,17 µM
same,TGI,LOX IMVI melanoma,36.8 µM
same,GI50,SNB-19 CNS,16.6 µM
same,TGI,SNB-19 CNS,35.4 µM
same,GI50,UO-31 renal,> 100 µM
same,TGI,UO-31 renal,> 100 µM
same,GI50,SK-OV-3 ovarian,19.6 µM
same,TGI,SK-OV-3 ovarian,44 µM
same,GI50,SR leukemia,22.9 µM
same,TGI,SR leukemia,> 100 µM
same,GI50,NCI-H23 lung,15.8 µM
same,TGI,NCI-H23 lung,32.7 µM
same,GI50,MDA-MB-435,16.3 µM
same,TGI,MDA-MB-435,35.4 µM
same,GI50,HL-60(TB) leukemia,29.6 µM
same,TGI,HL-60(TB) leukemia,> 100 µM
